Entries after “also recorded” stand apart in the source; their conditions may differ.
What was measured:
[1] = thermodynamic solubility; assay type: physicochemical; conditions: pH 6.5; experimental data
Procedure: (§1) PBPK models were developed using PK-Sim v11.0 in rats and beagle dogs, and each was used to predict data in the other species, including mice. A base model was parameterized using lipophilicity, plasma protein binding, thermodynamic solubility, and pKa measured from in vitro studies. Half-life of HOSU-53 measured in beagle cryo-preserved hepatocytes was used along with hepatocyte incubation density within the In Vitro to In Vivo Extrapolation (IVIVE) tools in PK-Sim to estimate metabolic clearance in vivo [25]. Renal clearance of unbound plasma HOSU-53 was assumed to be driven solely by glomerular filtration rate (GFR). Various methods were used to calculate partition coefficients and cellular permeabilities in PK-Sim. PK predictions generated for each combination of calculation methods were compared to the mean observed IV profile, and the methods that best matched the observed data were selected. Ultimately, partition coefficients were calculated using the Rodgers and Rowland method, and cellular permeabilities were calculated using the charge-dependent Schmitt method. PK following oral administration of HOSU-53 was used to identify parameter values for intestinal permeability for the sodium and lysine salt forms administered in deionized (DI) water. […]

[2] = 28-day GLP repeat-dose toxicity study in dogs
Procedure: The PK/PD characterization of HOSU-53 in beagle dogs was conducted across several studies. An initial single-dose PK/PD evaluation was carried out with male dogs receiving HOSU-53 (10 mg/kg, PO; 3 mg/kg, IV) in 40% HPBCD. Then, repeat-dose PK/PD over 7 days was assessed in male and female dogs with doses of 0.3, 1, and 3 mg/kg (PO, QD) in deionized water. […] Additional GLP toxicokinetic and toxicodynamic evaluations were performed, where dogs were dosed at 0.2, 0.6, and 1 mg/kg (PO, QD) for 28 days followed by a 14-day recovery period (Details in Supplementary Table S1).

[3] = population PK model, dog; assay type: in vivo
Procedure: (§2) Population PK analyses were performed using nonlinear mixed-effects modeling implemented in Monolix software (Monolix Suite 2024R1, Antony, France). This approach utilizes the stochastic approximation of the expectation-maximization (SAEM) algorithm coupled with a Markov chain Monte Carlo (MCMC) method to optimize the likelihood. One- and two-compartment PK models incorporating zero- and first-order absorption with linear elimination were evaluated. Interindividual variability (IIV) in PK parameters was assumed to follow a log-normal distribution, except for bioavailability (F), which was modeled using a logit-normal distribution. An exponential model was applied, as described by the following equation: θi=θp×e^ηi where θi is the model predicted PK parameter for the ith animal, θp is the typical population PK parameter, and ηi is the random variable of normal distribution with mean zero and variance ω^2 .
(§3) Residual or random unexplained variability was evaluated using additive, proportional, and combined error models. For each model, several criteria were assessed, including the objective function value (OFV), Akaike Information Criterion (AIC), Bayesian Information Criterion (BIC), corrected Bayesian Information Criterion (BICc), and the precision of parameter estimates, expressed as residual standard errors.
During the development of the PK model for dogs, a two-compartment model was first constructed using IV data alone. […] This approach provided reasonable estimates for F and Ka, with acceptable RSE values (Table 3). […] The GOF plots for the final PK models of dog and mouse are presented in Figure 1 and Supplementary Figure S1, respectively.

[4] = 28-day GLP repeat-dose toxicity study in rats
Procedure: A series of PK and PD studies was carried out using a range of single and repeat dosing regimens in rats, exploring variations in formulation and dosing schedules. The initial experiment evaluated the PK/PD profile following a single dose of 10 mg/kg PO and 3 mg/kg IV using 40% HPBCD. Building on the single-dose results, repeat dosing was investigated at 1 (both sexes), 3 (both sexes), 6 (females), and 10 (males) mg/kg (PO, QD) and 30 (both sexes) mg/kg (PO, BIWK) regimen in 40% HPBCD formulation. To extend the findings into a disease-relevant context, repeat dosing was evaluated for 14 days in a MOLM-13 xenograft model in the Sprague Dawley Rag2−/− Il2rg−/− (SRG) male rats, where doses of 1, 3, and 10 mg/kg (PO, QD) were administered, alongside 30 mg/kg biweekly (PO, BIWK).

[5] = noncompartmental PK in mice; assay type: in vivo
[6] = parameters: method as in PMID 38646934; conditions: cited from earlier work
[7] = pKa; assay type: physicochemical; conditions: experimental data
Procedure: as §1

[8] = tested on: plasma DHO; experiment: population PD model (indirect turnover, plasma DHO), mouse; assay type: in vivo
Procedure: (§4) To develop the PK/PD models, a sequential approach was tested for dog data, involving the initial construction of the PK model, fixing the PK parameters with population estimated thetas and eta variances, and then estimating the PD parameters. For mouse and rat data, a simultaneous approach was employed, estimating PK and PD parameters concurrently, assuming log-normal distribution for both. To account for the delay in PD response that results from the inhibition of DHODH, the factor controlling the dissipation of the response, various modeling approaches were employed. One approach involved using an effect compartment model with an equilibrium half-life parameter ( ke0 ) to characterize the delay,
(§5) The final PK/PD model for both species was an indirect turnover model with degradation inhibition. The parameters for the final dog and mouse PK/PD models are presented in Table 3 and Supplementary Table S3, respectively.

[9] = tested on: PXR; parameters: method as in PMID 38646934; conditions: cited from earlier work
[10] = biological target: human DHODH (Homo sapiens, UniProt Q02127); parameters: method as in PMID 38646934; conditions: cell-free; read-out: IC50 in cell-free human DHODH inhibition assay; cited from earlier work
human DHODH, sequence (Q02127 whole entry): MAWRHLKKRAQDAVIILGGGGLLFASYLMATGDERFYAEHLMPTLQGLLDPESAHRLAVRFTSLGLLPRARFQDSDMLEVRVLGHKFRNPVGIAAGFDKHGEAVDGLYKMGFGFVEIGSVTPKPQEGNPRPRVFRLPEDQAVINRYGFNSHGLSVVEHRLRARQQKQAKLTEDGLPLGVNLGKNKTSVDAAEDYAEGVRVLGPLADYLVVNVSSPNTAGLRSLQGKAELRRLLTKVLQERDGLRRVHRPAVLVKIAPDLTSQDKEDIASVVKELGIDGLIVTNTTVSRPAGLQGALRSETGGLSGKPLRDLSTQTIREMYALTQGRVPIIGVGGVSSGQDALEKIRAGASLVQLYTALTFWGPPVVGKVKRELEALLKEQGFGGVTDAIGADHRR

[11] = parameters: method as in PMID 38646934; conditions: cited from earlier work; remark: listed apart in the source
[12] = tested on: MOLM-13 cell line–derived xenograft; parameters: method as in PMID 38646934; conditions: combined with other front-line therapies; cited from earlier work
[13] = tested on: PPARγ; conditions: cited from earlier work
[14] = in vitro hepatic stability assay scaled by IVIVE, rat; assay type: in vitro ADME; conditions: scaled from in vitro hepatic stability assay
Procedure: as §1

[15] = population PK model, mouse; assay type: in vivo
Procedure: as §2, §3
The final structural PK models for both mouse and dog data were two-compartment disposition models with first-order absorption and linear elimination. We ultimately chose to exclude rat data from the population modeling effort, as described below in this section. The parameters for the final dog and mouse PK models are presented in Table 3 and Supplementary Table S3, respectively. All parameters were estimated with good precision, as indicated by the %RSE of the estimates. Proportional and combined error models were selected for the mouse and dog data, respectively.

[16] = tested on: plasma DHO; experiment: population PD model (indirect turnover, plasma DHO), dog; assay type: in vivo
Procedure: as §4, §5

[17] = tested on: hERG ion channel; parameters: method as in PMID 38646934; conditions: cited from earlier work
[18] = noncompartmental PK in rats; assay type: in vivo
Excerpt: (§6) Non-clinical PK of HOSU-53 has been studied and analyzed after single and multiple doses with noncompartmental analysis (NCA). […] F was similar between the two species, with mean values of approximately 60% and 50% in rats and dogs, respectively.

[19] = tested on: plasma DHO; experiment: correlation of plasma DHO exposure with efficacy, tolerability and toxicity in repeat dose studies; assay type: in vivo, rats, dogs, and tumor-bearing mice; conditions: based on preclinical experiments
Procedure: These GI toxicities are consistent with the high proliferative demand of intestinal epithelial cells, which rely on pyrimidine availability for DNA synthesis and repair. The No Observed Adverse Effect Levels (NOAELs) from the rat and dog GLP toxicity studies were then determined to be one dose level lower, which are 2.5 mg/kg (PO, QD) and 0.6 mg/kg (PO, QD), respectively. Based on repeat dose studies in rats, dogs, and tumor-bearing mice, efficacy, tolerability, and toxicity can be correlated with levels of the PD biomarker DHO in plasma.

[20] = noncompartmental PK in dogs; assay type: in vivo
Excerpt: as §6

## CCCCOc1cccc(-c2ccc(-c3cc(C(=O)O)c4cc(F)ccc4n3)cc2)c1 [HOSU-53]
[1]
  Solubility: 18.8 μg/mL (pH 6.5)
[2]; all dogs, 28-day GLP study
  survival: survived until scheduled euthanasia
[2]; dogs
  HNSTD or STD10: 0.6 mg/kg/day
[2]; dogs, PO, QD, 28-day GLP
  NOAEL: 0.6 mg/kg
[2]; dogs, preclinical toxicokinetic data
  maximum DHO concentration with no toxicity: ~ 5850 ng/mL
[2]; female dogs, 1 mg/kg PO, QD, 1–2 h postdosing, weeks 1 and 4
  heart rate and RR interval: lower heart rate and longer RR interval duration
[2]; male and female dogs, 1 mg/kg PO, QD, 1 mg/kg
  adverse effects: decreased food consumption, lower body weights, and adverse intestinal microscopic findings related to mucosal epithelial cell loss; also recorded: decreased food consumption, lower body weights, and adverse intestinal (colon, ileum, and/or jejunum) microscopic findings related to mucosal epithelial cell loss
[2]; scaled by body surface area from dogs (divided by 1.8)
  human equivalent dose (HED): 0.3 mg/kg/day
[3]; bootstrap point estimate
  F (%): 0.67 fraction
  Ka: 1.55 h⁻¹
[3]; model estimate (RSE%)
  F (%): 0.67 (2.8) %
  Ka: 1.53 (12.6) /h
[3]; model estimate, fixed
  CL/F: 150 Fix mL/h
  Q: 400 Fix mL/h
  V1: 980 Fix mL
  V2: 490 Fix mL
[4]; male and female rats, 5 mg/kg PO, QD
  adverse effects: decreased lymphoid cellularity in the thymus, mild-to-moderate decreases in lymphocyte counts, and lower thymus weights
[4]; rats
  HNSTD or STD10: 5 mg/kg/day
[4]; rats, PO, QD, 28-day GLP
  NOAEL: 2.5 mg/kg
[4]; rats, preclinical toxicokinetic data
  maximum DHO concentration with no toxicity: ~ 2870 ng/mL
[4]; scaled by body surface area from rats (divided by 6.2)
  human equivalent dose (HED): 0.8 mg/kg/day
[5]; NCA
  mean T1/2: 30 h
[5]; repeated oral dosing, higher doses, dose range 4–30 mg/kg
  dose proportionality of plasma levels: less-than-dose-proportional manner
[5]; single IV 3 mg/kg and oral 10 mg/kg, NCA
  F: 86%
[6]
  micronucleus assay: negative
[7]
  pKa (Acid): 3.05 (Acid)
  pKa (Base): 1.19 (Base)
[8]; bootstrap point estimate
  IC50: 1610 nM
  Kout: 127 h⁻¹
  gamma: 1.63
[8]; model estimate (RSE %)
  Kout: 155 (12.7) /h
  gamma: 1.71 (0.1)
[8]; plasma HOSU-53 concentration, inhibition of DHO degradation, model estimate (RSE %)
  IC50: 1550 nM
[9]
  PXR induction: does not induce PXR
[10]
  IC50: 0.95 nM
[11]
  Ames mutagenicity: negative
[12]
  survival: prolonged survival benefits
[13]
  PPARγ agonism potency, fold less than potency against MOLM-13 AML cells in cell viability assays: 1500 ×
[14]
  Specific Clearance: 7.29 min⁻¹
[15]; bootstrap point estimate
  CL/F: 0.07 mL/h
  F (%): 54%
  Ka: 1.2 h⁻¹
  Q: 1.6 mL/h
  V1: 1.3 mL
  V2: 1.1 mL
[15]; model estimate (RSE %)
  CL/F: 0.07 (5.0) mL/h
  F (%): 0.53 (0.02) %
  Ka: 1.0 (0.02) /h
  Q: 1.6 (1.7) mL/h
  V1: 1.2 (8.7) mL
  V2: 1.2 (5.3) mL
[16]; bootstrap point estimate
  IC50: 80 nM
  Kout: 70 h⁻¹
  gamma: 1.86
[16]; model estimate (RSE%)
  Kout: 52 (11.4) /h
  gamma: 1.9 (1.6)
[16]; plasma HOSU-53 concentration, inhibition of DHO degradation, model estimate (RSE%)
  IC50: 100 nM
[17]
  hERG ion channel inhibition: does not induce PXR or inhibit the hERG ion channel
[18]; mean, NCA
  F: approximately 60%
[18]; repeated oral dosing, higher doses, dose range 3–10 mg/kg
  dose proportionality of plasma levels: less-than-dose-proportional manner
[19]
  AUCtau,ss of DHO at which optimal efficacy is expected: around 300 µM·h
[20]; mean, NCA
  F: ~50%
[20]; repeated oral dosing, dose range 0.3–3 mg/kg
  dose proportionality of plasma levels: dose-proportional manner

Reference: publication PMC12030426, “Translational Pharmacokinetic-Pharmacodynamic Modeling of a Novel Oral Dihydroorotate Dehydrogenase (DHODH) Inhibitor, HOSU-53 (JBZ-001)” (Pharmaceutics, 2025)
